The record followed here is ChEMBL document CHEMBL5143535, “Novel O-acylated (E)-3-aryl-6,7-dihydrobenzisoxazol-4(5H)-one oximes targeting HSP90-HER2 axis in breast cancer cells” (Bioorg Med Chem, 2022).

In one data set the test system is MCF7. The data set is described as follows: Antiproliferative activity against human MCF7 cells measured after 72 hrs by MTT assay. The format is functional, cell-based. The settings on record: MCF7, 72 h.
The subject of the next data set is MDA-MB-231. The data set is described as follows: Antiproliferative activity against human MDA-MB-231 cells measured after 72 hrs by MTT assay. Conditions: MDA-MB-231, 72 h. The format is functional, cell-based. In general terms: Formazan colour is commonly taken as a measure of viable cells.
Data set [1] deals with HCC1954. The experiment in a line: Antiproliferative activity against human HCC1954 cells measured after 72 hrs by MTT assay. Conditions: HCC1954, 72 h. The format is functional, cell-based.
For data set [2], the system named is HCC1954. The experiment in a line: Cell cycle arrest in human HCC1954 cells assessed as decrease in cell accumulation at G1 phase at 10 to 20 uM measured after 48 hrs by propidium iodide staining based flow cytometry. Type of data set: functional. Conditions: dose 10-20 µM. For orientation: A flow cytometer gives signals particle by particle.
Data set [3] relates to HCC1954. The data set is described as follows: Cell cycle arrest in human HCC1954 cells assessed as cell accumulation at sub-G1 phase at 20 uM measured after 48 hrs by propidium iodide staining based flow cytometry relative to control. Type of data set: functional.
The target in data set [4] is T1, Heat shock protein HSP90 (Homo sapiens) (UniProt P07900+P08238). The data set is described as follows: Inhibition of HSP90 in human HCC1954 cells assessed as down regulation of EGFR expression at 10 to 20 uM measured after 72 hrs by Western blot analysis. Type of data set: cell-based. Conditions: dose 10-20 µM.
The test system of data set [5] is HCC1954. The data set is described as follows: Induction of apoptosis in human HCC1954 cells assessed as increase in cleaved caspase-9 expression at 10 to 20 uM measured after 72 hrs by Western blot analysis. The format is functional, cell-based. Conditions: dose 10-20 µM.
The subject of data set [6] is HCC1954. The experiment in a line: Induction of apoptosis in human HCC1954 cells assessed as increase in cleaved PARP expression at 10 to 20 uM measured after 72 hrs by Western blot analysis. Conditions: dose 10-20 µM. The format is functional, cell-based.
In data set [7] the test system is HCC1954. The data set is described as follows: Cell cycle arrest in human HCC1954 cells assessed as increase in cell accumulation at sub-G1 phase measured after 48 hrs by propidium iodide staining based flow cytometry. Conditions: dose 10-20 µM, DDE = dose-dependent effect. The format is functional.
Data set [8] has as its system HCC1954. The experiment in a line: Induction of apoptosis in human HCC1954 cells assessed as reduction in NF-kappaB expression at 10 to 20 uM measured after 72 hrs by Western blot analysis. The format is functional, cell-based. The settings on record: dose 10-20 µM. On the technique in general: Immunoblotting shows a protein as a band on a membrane.
Data set [9] concerns the target T1, Heat shock protein HSP90 (Homo sapiens). The data set is described as follows: Inhibition of HSP90 in human HCC1954 cells assessed as reduction in AKT phosphorylation at 10 to 20 uM measured after 72 hrs by Western blot analysis. The format is cell-based. The settings on record: dose 10-20 µM.
Data set [10] can be described thus: Effect on HSP70 expression in human HCC1954 cells at 10 to 20 uM measured after 72 hrs by Western blot analysis. The format is toxicity, cell-based. The settings on record: hcc1954, 72 h, dose 10-20 µM.
The nature of data set [11]: Cytotoxicity against human MCF-10A cells measured after 72 hrs by MTT assay. The format is toxicity, cell-based.
Data set [12] addresses T1, Heat shock protein HSP90 (Homo sapiens). The experiment in a line: Inhibition of HSP90 in human HCC1954 cells assessed as down regulation of AKT expression at 10 to 20 uM measured after 72 hrs by Western blot analysis. Type of data set: cell-based. Conditions: dose 10-20 µM.
For data set [13] the target is unchanged. The data set is described as follows: Inhibition of HSP90 in human HCC1954 cells assessed as down regulation of ERK1/2 expression at 10 to 20 uM measured after 72 hrs by Western blot analysis. Type of data set: cell-based. Conditions: dose 10-20 µM.
Data set [14] shares this target. The data set is described as follows: Inhibition of HSP90 in human HCC1954 cells assessed as down regulation of HER2 expression at 10 to 20 uM measured after 72 hrs by Western blot analysis. The format is cell-based. Conditions: dose 10-20 µM.
The test system of data set [15] is HCC1954. The experiment in a line: Antiproliferative activity against human HCC1954 cells measured after 72 hrs by SRB assay. Conditions: HCC1954, 72 h. Type of data set: functional, cell-based.

SMILES strings stand for the structures. Calls of active or inactive are those of the source. No cut-off for these calls is given here.

As a reminder, the IC50 is the concentration that inhibits the measured activity by half. A low value points to greater potency in that assay. With `O=C(Nc1ccccc1C(=O)O/N=C1\CCCc2noc(-c3ccc(F)cc3)c21)c1ccccc1F`, the IC50 in the data set with MCF7, with MDA-MB-231 and with HCC1954 [1] was > 25 µM each time.
As for `O=C(Nc1cccc(C(=O)O/N=C2\CCCc3noc(-c4ccc(F)cc4)c32)c1)c1cccc(F)c1`, the IC50 with MCF7, in the data set on MDA-MB-231 and in the data set with HCC1954 [1] was > 25 µM each time.
As to `COc1ccc(-c2noc3c2/C(=N/OC(=O)c2cccc(NC(=O)c4cccc(F)c4)c2)CC(C)(C)C3)cc1OC`, the IC50 in the data set with MCF7, in the data set on MDA-MB-231 and in the data set on HCC1954 [1] was > 25 µM in each case.
As for `CC1(C)C/C(=N\OC(=O)c2cccc(NC(=O)c3cccc(F)c3)c2)c2c(-c3cccc(F)c3)noc2C1`, the IC50 was 25 µM in the data set with MCF7, > 25 µM in the data set with MDA-MB-231 and > 25 µM in the data set on HCC1954 [1].
In the case of `CC1(C)C/C(=N\OC(=O)c2cccc(NC(=O)c3cccc(F)c3)c2)c2c(noc2-c2cccc(F)c2)C1`, the IC50 in the data set on MCF7, with MDA-MB-231 and in the data set with HCC1954 [1] was > 25 µM each time.
Regarding `Nc1cccc(C(=O)Nc2cccc(C(=O)O/N=C3\CCCc4noc(-c5ccc(F)cc5)c43)c2)c1`, the IC50 in the data set on MCF7, with MDA-MB-231 and in the data set on HCC1954 [1] was > 25 µM throughout.
Turning to `Nc1cccc(C(=O)Nc2cccc(C(=O)O/N=C3\CCCc4onc(-c5ccc(F)cc5)c43)c2)c1`, the IC50 with MCF7, in the data set on MDA-MB-231 and with HCC1954 [1] was > 25 µM throughout.
Take `O=C(O)c1cccc(NC(=O)c2cccc(F)c2)c1`: the IC50 in the data set on MCF7, with MDA-MB-231 and in the data set with HCC1954 [1] was > 25 µM in each case.
In the case of `O=C(Nc1cccc(C(=O)O/N=C2\CCCc3onc(-c4ccccc4F)c32)c1)c1cccc(F)c1`, the IC50 is > 25 µM in the data set with MCF7, 6.2 µM in the data set with MDA-MB-231 and > 25 µM in the data set on HCC1954 [1].
Take `O=C(Nc1cccc(C(=O)O/N=C2\CCCc3noc(-c4cccc(F)c4)c32)c1)c1cccc(F)c1`: the figures for the IC50 with MCF7, in the data set with MDA-MB-231 and in the data set with HCC1954 [1] were > 25 µM, 9.3 µM and > 25 µM, respectively.
Consider `CC1(C)C/C(=N\OC(=O)c2ccccc2NC(=O)c2ccccc2F)c2c(-c3ccc(F)cc3)noc2C1`, for which the IC50 with MCF7, with MDA-MB-231 and in the data set with HCC1954 [1] was > 25 µM each time.
As for `CC(C)(C)OC(=O)Nc1cccc(C(=O)Nc2cccc(C(=O)O/N=C3\CCCc4onc(-c5ccc(F)cc5)c43)c2)c1`, the IC50 with MCF7, with MDA-MB-231 and with HCC1954 [1] was > 25 µM in each case.
As for `CC1(C)C/C(=N\OC(=O)c2cccc(NC(=O)c3cccc(F)c3)c2)c2c(-c3ccc(F)cc3)noc2C1`, the IC50 in the data set on MCF7 is 5.2 µM; with MDA-MB-231 it was > 25 µM; with HCC1954 [1], > 25 µM.
As to `COc1ccc(-c2noc3c2/C(=N/OC(=O)c2cccc(NC(=O)c4cccc(F)c4)c2)CCC3)cc1OC`, the IC50 with MCF7, in the data set with MDA-MB-231 and in the data set on HCC1954 [1] was > 25 µM throughout.
As for `COc1cccc(C(=O)Nc2cccc(C(=O)O/N=C3\CCCc4onc(-c5ccc(OC)c(OC)c5)c43)c2)c1`, the IC50 with MCF7, in the data set with MDA-MB-231 and in the data set with HCC1954 [1] was > 25 µM each time.
Regarding `COc1cc(-c2onc3c2/C(=N/OC(=O)c2cccc(NC(=O)c4cccc(F)c4)c2)CC(C)(C)C3)ccc1O`, the outcome in the data set on HCC1954 [2], with HCC1954 [5], in the data set on HCC1954 [6] and with HCC1954 [8] was Active. For the same compound, the IC50 was 6.2 µM in the data set with MCF7, > 25 µM in the data set with MDA-MB-231, 6 µM with HCC1954 [1] and 6 µM in the data set on HCC1954 [15]. In addition, the results for the Activity (in the data set on HCC1954 [3]; in the data set on HCC1954 [7]; in data set [10]) were 50%, “Dde” and “Non-Toxic”, respectively. For the same compound, the inhibition result in data set [4], in [9], in data set [12], in data set [13] and in data set [14] was “Active” throughout. The IC50 at 72 h in data set [11] was > 30 µM.
Consider `O=C(Nc1cccc(C(=O)O/N=C2\CCCc3onc(-c4cccc(F)c4)c32)c1)c1cccc(F)c1`, for which the IC50 in the data set with MCF7 is 4.7 µM; in the data set with MDA-MB-231, 8.7 µM; in the data set with HCC1954 [1], > 25 µM.
The like results for `O=C(Nc1ccccc1C(=O)O/N=C1\CCCc2onc(-c3ccc(F)cc3)c21)c1cccc(F)c1` were, in that order, > 25 µM, > 25 µM and > 25 µM.
Regarding `O/N=C1\CCCc2onc(-c3cccc(F)c3)c21`, the IC50 with MCF7, with MDA-MB-231 and with HCC1954 [1] was > 25 µM in each case.
In the case of `COc1cc(/C=C(\C#N)C(N)=O)cc(CSc2nc3ccccc3s2)c1O`, the IC50 in the data set with HCC1954 [15] worked out at 30 µM.
Turning to `COc1ccc(-c2noc3c2/C(=N/OC(=O)c2cccc(NC(=O)c4cccc(N)c4)c2)CCC3)cc1OC`, the IC50 in the data set with MCF7 was 25 µM; in the data set on MDA-MB-231, > 25 µM; in the data set with HCC1954 [1], > 25 µM.
Regarding `COc1ccc(-c2onc3c2/C(=N/OC(=O)c2cccc(NC(=O)c4cccc(F)c4)c2)CC(C)(C)C3)cc1OC`, the IC50 in the data set with MCF7, in the data set with MDA-MB-231 and with HCC1954 [1] was > 25 µM throughout.
With `CC(=O)Nc1ccccc1C(=O)O/N=C1\CCCc2noc(-c3ccc(F)cc3)c21`, the IC50 in the data set with MCF7, in the data set on MDA-MB-231 and in the data set with HCC1954 [1] was > 25 µM throughout.
